The values that follow come from patent US6541495B1, “Carboxylic acid derivatives as inhibitors of hyperproliferation diseases” (Pfizer INC, priority 1999, dated 2003).

Structures are written as SMILES.

This experiment addresses T1, VEGF/GAG (glycosaminoglycan) binding (purified VEGF165, [125I]heparin-16-mer) (Homo sapiens, UniProt P15692).
T1 construct: purchased Repligen, Inc
T1 sequence (P15692 27-191 isoform P15692-4): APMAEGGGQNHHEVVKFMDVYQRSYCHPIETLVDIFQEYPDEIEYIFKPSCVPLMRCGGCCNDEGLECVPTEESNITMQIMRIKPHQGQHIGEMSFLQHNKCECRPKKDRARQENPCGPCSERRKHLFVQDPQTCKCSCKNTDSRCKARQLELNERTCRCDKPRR
The experiment in a line: VEGF/GAG (glycosaminoglycan) binding inhibition, [125I]heparin-16-mer filter plate assay. As to conditions: activity data for representative compounds of formula I; in vitro VEGF165 / [125I]heparin-16-mer binding, 60 minutes at room temperature. Here is the method:
The in vitro activity of the compounds of formula I in inhibiting VEGF/GAG (glycosaminoglycan) binding may be measured using the assay described in U.S. Pat. No. 5,795,860, the subject matter of which is incorporated herein by reference.
Using mixed cellulose ester 96-well filter plates, 150 μL of Dulbeccos PBS (phosphate buffered saline) containing 10% ovalbumin is added. Compound (5.0 μL) is added at a final concentration of 1.8 μM. Compounds are dissolved in 8% DMSO (final DMSO concentration is 0.16%) and tested at concentrations of 32, 10, 3.2, 1.0, 0.32 and 0.10 μM. A mixture of [^125I]heparin-16-mer (4500 cpm per well), purified VEGF165 (20 nM final concentration/well, prepared by Repligen, Inc.) and Dulbeccos PBS with 10% ovalbumin is added to the 96-well plate in a volume of 100 μL. Nonspecific binding is defined using 10 μM heparin-sodium from porcine intestinal mucosa. The assay plate is incubated for 60 minutes at room temperature, filtered using a Millipore filtration apparatus, the plastic bottom plate is removed and the filter plate is allowed to completely dry. The plate bottom is sealed with plastic plate seal and 25 μL of scintillation cocktail is added to each well. The top plate is sealed and is counted for radioactivity on a Microbeta Scintillation Counter. The assay is run in a final volume of 250 μL.

`Cc1oc(-c2ccccc2)nc1Cc1cc2cc(CC(OCCCO)C(=O)O)ccc2o1` (stereo not drawn) [2-(3-Hydroxy-propoxy)-3-[2-(5-methyl-2-phenyl-oxazol-4-ylmethyl)-benzofuran-5-yl]-propionic acid] registered an IC50 of 14 µM. Under `C=CCOC(Cc1ccc2oc(Cc3nc(-c4ccccc4)oc3C)cc2c1)C(=O)O` (stereo not drawn) [2-Allyloxy-3-[2-(5-methyl-2-phenyl-oxazol-4-ylmethyl)-benzofuran-5-yl]-propionic acid] stands 13 µM; under `Cc1oc(-c2ccccc2)nc1Cc1cc2cc(CC(SCc3ccccc3)C(=O)O)ccc2o1` (stereo not drawn) [2-Benzylsulfanyl-3-[2-(5-methyl-2-phenyl-oxazol-4-ylmethyl)-benzofuran-5-yl]-propionic acid], 2.6 µM. As for `CSC(Cc1ccc2oc(Cc3nc(-c4cccc(C)c4)oc3C)cc2c1)C(=O)O` (stereo not drawn) [2-Methylsulfanyl-3-[2-(5-methyl-2-m-tolyl-oxazol-4-ylmethyl)-benzofuran-5-yl]-propionic acid], the IC50 was 8 µM.

Regarding `CCCCCCCCSC(Cc1ccc2oc(Cc3nc(-c4ccccc4)oc3C)cc2c1)C(=O)O` (stereo not drawn) [3-[2-(5-Methyl-2-phenyl-oxazol-4-ylmethyl)-benzofuran-5-yl]-2-octylsulfanyl-propionic acid], the IC50 turned out to be 0.8 µM. For the compound `Cc1oc(-c2ccccc2)nc1Cc1cc2cc(CC(Oc3ccccc3)C(=O)O)ccc2o1` (stereo not drawn) [3-[2-(5-Methyl-2-phenyl-oxazol-4-ylmethyl)-benzofuran-5-yl]-2-phenoxy-propionic acid], the IC50 stood at 2 µM. As for `CCCSC(Cc1ccc2oc(Cc3nc(-c4ccccc4)oc3C)cc2c1)C(=O)O` (stereo not drawn) [3-[2-(5-Methyl-2-phenyl-oxazol-4-ylmethyl)-benzofuran-5-yl]-2-propylsulfanyl-propionic acid], the figure is 1.5 µM; as for `Cc1oc(-c2ccccc2)nc1Cc1cc2cc(CCC(=O)O)ccc2o1` [3-[2-(5-Methyl-2-phenyl-oxazol-4-ylmethyl)-benzofuran-5-yl]-propionic acid], 6.8 µM. Under `CSC(Cc1ccc(OCCc2nc(-c3ccccc3)oc2C)cc1)C(=O)O` (stereo not drawn) [3-{4-[2-(5-Methyl-2-phenyl-oxazol-4-yl)-ethoxy]-phenyl}-2-methylsulfanyl-propionic acid] stands 4.5 µM.
